Consider 1 molecule from ChEMBL document CHEMBL1142943, “Homology modeling of human Fyn kinase structure: discovery of rosmarinic acid as a new Fyn kinase inhibitor and in silico study of its possible binding modes” (J Med Chem, 2007).

The IC50 is the concentration needed to halve the response being measured. The Ki is a measure of affinity in units of concentration, obtained from inhibition or displacement. Read a high Ki as a looser hold on the target.

The target of experiment [1] is T1, Tyrosine-protein kinase Fyn (Homo sapiens, UniProt P06241). The experiment in a line: Inhibition of human Fyn expressed in Sf9 cells after 20 mins by ELISA in presence of 1 umol/L ATP. In general terms: An ELISA detects its analyte on a solid surface through an enzyme-linked reagent.
Experiment [2] has as its target T1, Tyrosine-protein kinase Fyn. As to the kind of experiment: Inhibition of human Fyn expressed in Sf9 cells after 20 mins by ELISA in presence of 10 umol/L ATP.
Experiment [3] has the same target. The experiment in a line: Inhibition of human Fyn expressed in Sf9 cells after 20 mins by ELISA in presence of 100 umol/L ATP.
Experiment [4] shares this target. As to the kind of experiment: Inhibition of human Fyn expressed in Sf9 cells after 1 min by ELISA in presence of 1 umol/L ATP.
Experiment [5] has the same target. The experiment in a line: Inhibition of human Fyn expressed in Sf9 cells after 1 min by ELISA in presence of 10 umol/L ATP.
The target is the same in experiment [6]. The experiment in a line: Inhibition of human Fyn expressed in Sf9 cells after 1 min by ELISA in presence of 100 umol/L ATP.
Experiment [7] has the same target. The experiment in a line: Inhibition of human Fyn expressed in Sf9 cells at 10 umol/L by ELISA.
Experiment [8] shares this target. The experiment in a line: Inhibition of human Fyn expressed in Sf9 cells at 30 umol/L by ELISA.

T1 sequence (P06241 whole entry): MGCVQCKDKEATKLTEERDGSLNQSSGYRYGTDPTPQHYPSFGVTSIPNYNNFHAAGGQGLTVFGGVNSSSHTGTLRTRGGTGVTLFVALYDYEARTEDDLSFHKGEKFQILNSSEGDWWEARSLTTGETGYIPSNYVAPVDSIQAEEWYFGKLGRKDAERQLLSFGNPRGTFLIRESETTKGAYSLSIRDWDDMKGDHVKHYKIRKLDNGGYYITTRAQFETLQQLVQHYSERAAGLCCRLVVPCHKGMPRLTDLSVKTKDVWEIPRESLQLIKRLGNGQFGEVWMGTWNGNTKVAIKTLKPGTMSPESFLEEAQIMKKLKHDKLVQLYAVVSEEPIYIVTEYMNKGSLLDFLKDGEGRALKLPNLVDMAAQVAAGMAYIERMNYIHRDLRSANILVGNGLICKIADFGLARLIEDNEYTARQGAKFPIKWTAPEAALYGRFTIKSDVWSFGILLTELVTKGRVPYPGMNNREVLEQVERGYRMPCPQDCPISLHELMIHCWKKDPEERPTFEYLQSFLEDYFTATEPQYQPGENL

For `O=C(/C=C/c1ccc(O)c(O)c1)O[C@H](Cc1ccc(O)c(O)c1)C(=O)O` [ROSMARINIC ACID], the IC50 in experiment [1] worked out at 1.3 µM; in experiment [2], 3.6 µM; in experiment [3], 17 µM; in experiment [4], 36 µM; in experiment [5] it was 74 µM; in experiment [6], 63 µM. Also, the Ki amounted to 7.5 µM in experiment [7] and 10.2 µM in experiment [8].
